For one assay, the target named is c-Kit (Homo sapiens (Human), UniProt P10721). In words: Inhibition of c-Kit kinase activity (HTRF KinEASE-TK). The assay is classed as biochemical. The conditions noted are these: biochemical. The method, boiled down:
(§1)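 Human kinases were preincubated 1 h at rt with a 22-point 1:2 compound titration, then run 120 min at rt with biotinylated TK peptide and ATP (2× mix: c-Kit 16 μM, PDGFRα 1 μM, PDGFRβ 40 μM, CSF1R 20 μM). Phosphopeptide was read by HTRF TR-FRET (665/620 nm), and IC50s came from 4-parameter fits.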
In general terms: TR-FRET usually uses a lanthanide donor and a delayed reading to cut background.

The target in a further assay is FLT3 (Homo sapiens (Human), UniProt P36888). In words: Inhibition of FLT3 kinase activity (HTRF KinEASE-TK). The assay is classed as biochemical. The conditions noted are these: biochemical. The procedure: Inhibition of c-Kit, PDGFRα, PDGFRβ, CSFIR and FLT3 Kinase Activity
Compounds were evaluated to determine the potency with which they inhibit the kinase activity of the following panel of tyrosine kinases: c-Kit (SignalChem, Product #: K06-11BG), PDGFRα (SignalChem, Product #: P12-18G), PDGFRβ (SignalChem, Product #: P13-11G), CSFIR (SignalChem, Product #: C74-11G) and FLT3 (Invitrogen, Product #: PR4666C). Activity was determined as a function of phosphorylated biotinylated TK peptide generated by the transfer of phosphate from ATP as measured by the use of the HTRF KinEASE-TK assay kit (Cisbio, Product #: 62TKOPEJ). Levels of phosphorylated biotinylated TK peptide (Part 61TKOBLC of KinEASE assay kit) are quantified by its capture by phosphor-TK-Antibody-Cryptate (Part of KinEASE assay kit) and XL665-labeled Streptavidin (Part 610SAXLG of KinEASE assay kit) followed by measurement of Time-Resolved Fluorescence Resonance Energy Transfer (TR-FRET) signal. On the day of the assay, compounds were solubilized in DMSO and dispensed into a 384-well white Opti-plate (PerkinElmer, catalog #6007290) to generate a 22 point 1:2 titration. Enzyme solution was prepared for each of the tyrosine kinases in 50 mM HEPES, pH 7.4, 5 mM MgCl2 for c-Kit or 10 mM MgCl2 for FLT3, CSFIR, PDGFRa and PDGFRβ, 2 mM MnCl2, 0.01% Brij-35 and 0.01% BSA. Working enzyme concentrations were prepared for c-Kit at 2 nM (2×), PDGFRa and PDGFRß at 10 nM (2×), CSFIR at 2 nM (2×) and FLT3 at 0.4 nM (2×). Five microliters of enzyme dilution of each tyrosine kinase were added to their respective 384-well white Opti-plate pre-dispensed with compound and allowed to incubate for 1 h at rt. Utilizing the same enzyme buffer recipe, 2x substrate mixes were prepared for each enzyme as follows: For c-Kit, 1.6 μM (2×) TK substrate and 16 μM (2×) ATP (Promega, catalog #V915). For PDGFRα, 3.2 μM TK substrate and 1 μM ATP. For PDGFRβ, 3.2 μM TK substrate and 40 μM ATP. For CSFIR, […] TK substrate and 20 μM ATP. For FLT3, 3.2 μM TK substrate and 100 μM ATP. Reactions were initiated by addition of 5 μL of the respective 2x substrate mix to each well of the plates containing the respective tyrosine kinase enzymes and were allowed to proceed for 120 minutes at rt, except for FLT3, the reaction time is 45 min. Following the reaction, 10 μL of detection mix consisting of 0.2 μM (2×) of Streptavidin-XL665 and 2 μM (2×) of TK-Antibody-Cryptate prepared in detection buffer (Part 62SDBRDF of KinEASE assay kit) was added and then allowed to incubate for 60 min. The TR-FRET signal was quantified by measuring the ratio of emission at 665 nm to 620 nm after excitation at 320 nm by reading on a PerkinElmer Envision multimode reader. Compound potencies (IC50 values) were determined using a standard 4-parameter non-linear regression fit.

The target of another assay is PDGFRβ (Homo sapiens (Human), UniProt P09619). In words: Inhibition of PDGFRβ kinase activity (HTRF KinEASE-TK). The settings on record: biochemical. The gist of the method: as §1
The target in another assay is CSF1R (Homo sapiens (Human), UniProt P07333). In words: Inhibition of CSF1R kinase activity (HTRF KinEASE-TK). The conditions noted are these: biochemical. The method, boiled down: as §1
For the next assay, the target named is PDGFRα (Homo sapiens (Human), UniProt P16234). In words: Inhibition of PDGFRα kinase activity (HTRF KinEASE-TK). The settings on record: biochemical. The method, boiled down: as §1
Assay [1] concerns Phospho-KIT (Y703) in M07e cells. Briefly: Phospho-KIT (Y703) cellular assay in M07e cells. The assay is classed as cell-based. The conditions noted are these: M-07e; M07e cells; read-out: Phospho-KIT (Y703) cellular IC50. The gist of the method:
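Serum-starved M07e cells preincubated 50 min at 37° C with 11-point half-log compound titration, then stimulated 10 min with SCF at 90.9 ng/mL final. Fixed, permeabilized cells stained for phospho-KIT Y703 and read by flow cytometry (live-gated geometric mean); IC50 by 4-parameter fit normalized to DMSO and positive control.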

A value given as a limit tells only on which side of the number the result lay.

FLT3, sequence (P36888 27-993): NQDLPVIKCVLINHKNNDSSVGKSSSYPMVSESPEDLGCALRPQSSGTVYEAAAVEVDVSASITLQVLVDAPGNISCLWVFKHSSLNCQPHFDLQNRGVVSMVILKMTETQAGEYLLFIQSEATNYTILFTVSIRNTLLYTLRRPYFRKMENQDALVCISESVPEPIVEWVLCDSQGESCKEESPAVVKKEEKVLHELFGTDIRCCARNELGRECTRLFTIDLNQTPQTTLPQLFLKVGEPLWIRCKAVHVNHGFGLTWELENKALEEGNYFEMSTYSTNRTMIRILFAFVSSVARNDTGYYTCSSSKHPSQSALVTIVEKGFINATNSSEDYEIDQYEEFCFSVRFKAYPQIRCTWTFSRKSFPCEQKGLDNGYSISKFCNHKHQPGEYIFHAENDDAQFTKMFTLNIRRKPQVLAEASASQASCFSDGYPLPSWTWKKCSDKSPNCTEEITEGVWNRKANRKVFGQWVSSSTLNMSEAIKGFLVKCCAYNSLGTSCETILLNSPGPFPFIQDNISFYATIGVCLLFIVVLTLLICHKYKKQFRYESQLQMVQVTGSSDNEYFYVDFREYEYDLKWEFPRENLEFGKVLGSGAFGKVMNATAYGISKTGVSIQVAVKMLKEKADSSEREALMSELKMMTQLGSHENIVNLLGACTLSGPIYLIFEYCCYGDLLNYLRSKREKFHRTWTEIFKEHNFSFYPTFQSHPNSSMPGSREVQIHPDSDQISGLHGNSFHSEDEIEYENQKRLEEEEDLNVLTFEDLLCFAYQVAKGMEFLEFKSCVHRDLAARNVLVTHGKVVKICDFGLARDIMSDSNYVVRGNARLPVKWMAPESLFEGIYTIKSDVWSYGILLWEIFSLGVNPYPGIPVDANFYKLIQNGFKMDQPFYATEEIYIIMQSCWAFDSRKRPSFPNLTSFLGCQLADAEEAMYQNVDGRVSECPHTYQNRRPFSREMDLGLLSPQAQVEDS
PDGFRα, sequence (P16234 24-1089): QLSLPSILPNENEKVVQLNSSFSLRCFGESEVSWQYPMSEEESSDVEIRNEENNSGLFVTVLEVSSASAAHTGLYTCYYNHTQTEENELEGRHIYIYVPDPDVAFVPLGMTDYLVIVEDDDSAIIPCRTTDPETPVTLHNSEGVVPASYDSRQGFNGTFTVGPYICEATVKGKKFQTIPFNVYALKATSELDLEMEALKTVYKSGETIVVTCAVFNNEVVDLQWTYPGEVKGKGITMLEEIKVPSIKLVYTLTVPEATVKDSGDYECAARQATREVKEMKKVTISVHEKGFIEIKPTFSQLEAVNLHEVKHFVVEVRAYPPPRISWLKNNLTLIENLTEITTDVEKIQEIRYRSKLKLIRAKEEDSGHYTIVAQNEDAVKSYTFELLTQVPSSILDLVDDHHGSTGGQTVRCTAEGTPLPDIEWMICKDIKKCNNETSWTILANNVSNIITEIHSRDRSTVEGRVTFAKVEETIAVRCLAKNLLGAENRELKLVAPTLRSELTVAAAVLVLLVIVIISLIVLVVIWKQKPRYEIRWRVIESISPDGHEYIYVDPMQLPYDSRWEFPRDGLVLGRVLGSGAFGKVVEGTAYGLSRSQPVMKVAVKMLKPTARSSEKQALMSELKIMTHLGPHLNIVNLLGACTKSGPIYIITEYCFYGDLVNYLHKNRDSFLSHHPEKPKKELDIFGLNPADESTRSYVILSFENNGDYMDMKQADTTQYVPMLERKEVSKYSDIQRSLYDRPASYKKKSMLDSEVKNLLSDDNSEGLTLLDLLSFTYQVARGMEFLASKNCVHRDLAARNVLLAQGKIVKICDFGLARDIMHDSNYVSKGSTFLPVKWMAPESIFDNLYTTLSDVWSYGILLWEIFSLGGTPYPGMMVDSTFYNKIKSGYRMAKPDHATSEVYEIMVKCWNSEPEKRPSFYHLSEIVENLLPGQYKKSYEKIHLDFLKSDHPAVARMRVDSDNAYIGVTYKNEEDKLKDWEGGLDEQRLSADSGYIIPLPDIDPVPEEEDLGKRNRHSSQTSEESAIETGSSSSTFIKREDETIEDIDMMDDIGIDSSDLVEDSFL
CSF1R, sequence (P07333 20-972): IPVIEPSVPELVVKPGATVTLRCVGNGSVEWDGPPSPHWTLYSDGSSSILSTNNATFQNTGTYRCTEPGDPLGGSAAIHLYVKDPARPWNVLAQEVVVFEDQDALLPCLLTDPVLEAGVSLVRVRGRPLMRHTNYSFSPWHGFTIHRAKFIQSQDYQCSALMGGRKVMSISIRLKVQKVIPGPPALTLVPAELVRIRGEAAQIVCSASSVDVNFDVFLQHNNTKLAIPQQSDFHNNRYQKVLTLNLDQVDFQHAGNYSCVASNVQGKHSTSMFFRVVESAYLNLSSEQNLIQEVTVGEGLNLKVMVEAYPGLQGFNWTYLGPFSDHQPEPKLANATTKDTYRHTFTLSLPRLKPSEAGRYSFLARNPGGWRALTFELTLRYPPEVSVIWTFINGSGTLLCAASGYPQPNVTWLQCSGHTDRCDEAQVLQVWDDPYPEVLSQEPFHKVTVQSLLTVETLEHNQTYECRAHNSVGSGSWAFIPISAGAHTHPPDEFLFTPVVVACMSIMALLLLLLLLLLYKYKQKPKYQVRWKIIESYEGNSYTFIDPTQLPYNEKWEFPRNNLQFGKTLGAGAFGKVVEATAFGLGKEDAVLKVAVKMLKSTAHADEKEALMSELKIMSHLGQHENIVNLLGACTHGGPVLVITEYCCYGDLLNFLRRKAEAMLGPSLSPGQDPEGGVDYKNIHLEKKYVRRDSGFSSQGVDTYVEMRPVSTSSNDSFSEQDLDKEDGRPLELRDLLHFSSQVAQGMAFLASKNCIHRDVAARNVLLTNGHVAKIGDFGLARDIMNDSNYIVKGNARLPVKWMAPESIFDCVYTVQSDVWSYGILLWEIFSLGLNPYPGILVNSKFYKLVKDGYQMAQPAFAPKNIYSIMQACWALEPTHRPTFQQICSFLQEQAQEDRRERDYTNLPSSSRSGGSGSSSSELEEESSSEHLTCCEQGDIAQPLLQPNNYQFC
PDGFRβ, sequence (P09619 33-1106): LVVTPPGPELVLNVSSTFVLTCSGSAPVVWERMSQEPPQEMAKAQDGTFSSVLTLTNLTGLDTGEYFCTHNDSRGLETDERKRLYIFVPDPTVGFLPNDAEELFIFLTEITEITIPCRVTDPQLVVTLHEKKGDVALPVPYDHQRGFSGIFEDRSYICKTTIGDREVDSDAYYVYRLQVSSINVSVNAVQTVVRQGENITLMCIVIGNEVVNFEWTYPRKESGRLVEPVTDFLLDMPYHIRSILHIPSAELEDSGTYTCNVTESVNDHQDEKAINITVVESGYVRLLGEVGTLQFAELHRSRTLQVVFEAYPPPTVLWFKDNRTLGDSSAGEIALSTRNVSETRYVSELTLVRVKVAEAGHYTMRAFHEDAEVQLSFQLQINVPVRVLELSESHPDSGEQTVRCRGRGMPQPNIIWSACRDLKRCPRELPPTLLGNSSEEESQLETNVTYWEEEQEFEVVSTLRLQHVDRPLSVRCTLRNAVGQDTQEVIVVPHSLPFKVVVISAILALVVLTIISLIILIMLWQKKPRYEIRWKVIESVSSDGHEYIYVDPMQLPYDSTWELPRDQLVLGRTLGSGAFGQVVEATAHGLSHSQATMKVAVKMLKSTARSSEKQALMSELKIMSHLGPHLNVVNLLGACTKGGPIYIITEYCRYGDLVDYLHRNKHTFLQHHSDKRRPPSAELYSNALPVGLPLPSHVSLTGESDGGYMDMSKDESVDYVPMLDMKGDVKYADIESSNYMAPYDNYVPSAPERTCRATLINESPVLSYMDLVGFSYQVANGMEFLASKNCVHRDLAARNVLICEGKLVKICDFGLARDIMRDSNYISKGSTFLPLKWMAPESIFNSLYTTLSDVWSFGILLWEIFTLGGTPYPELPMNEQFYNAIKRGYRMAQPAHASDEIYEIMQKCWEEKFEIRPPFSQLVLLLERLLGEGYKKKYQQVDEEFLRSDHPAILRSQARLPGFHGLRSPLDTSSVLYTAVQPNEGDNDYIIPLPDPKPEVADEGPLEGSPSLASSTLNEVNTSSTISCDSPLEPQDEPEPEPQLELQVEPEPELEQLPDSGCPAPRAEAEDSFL
c-Kit, sequence (P10721 26-976): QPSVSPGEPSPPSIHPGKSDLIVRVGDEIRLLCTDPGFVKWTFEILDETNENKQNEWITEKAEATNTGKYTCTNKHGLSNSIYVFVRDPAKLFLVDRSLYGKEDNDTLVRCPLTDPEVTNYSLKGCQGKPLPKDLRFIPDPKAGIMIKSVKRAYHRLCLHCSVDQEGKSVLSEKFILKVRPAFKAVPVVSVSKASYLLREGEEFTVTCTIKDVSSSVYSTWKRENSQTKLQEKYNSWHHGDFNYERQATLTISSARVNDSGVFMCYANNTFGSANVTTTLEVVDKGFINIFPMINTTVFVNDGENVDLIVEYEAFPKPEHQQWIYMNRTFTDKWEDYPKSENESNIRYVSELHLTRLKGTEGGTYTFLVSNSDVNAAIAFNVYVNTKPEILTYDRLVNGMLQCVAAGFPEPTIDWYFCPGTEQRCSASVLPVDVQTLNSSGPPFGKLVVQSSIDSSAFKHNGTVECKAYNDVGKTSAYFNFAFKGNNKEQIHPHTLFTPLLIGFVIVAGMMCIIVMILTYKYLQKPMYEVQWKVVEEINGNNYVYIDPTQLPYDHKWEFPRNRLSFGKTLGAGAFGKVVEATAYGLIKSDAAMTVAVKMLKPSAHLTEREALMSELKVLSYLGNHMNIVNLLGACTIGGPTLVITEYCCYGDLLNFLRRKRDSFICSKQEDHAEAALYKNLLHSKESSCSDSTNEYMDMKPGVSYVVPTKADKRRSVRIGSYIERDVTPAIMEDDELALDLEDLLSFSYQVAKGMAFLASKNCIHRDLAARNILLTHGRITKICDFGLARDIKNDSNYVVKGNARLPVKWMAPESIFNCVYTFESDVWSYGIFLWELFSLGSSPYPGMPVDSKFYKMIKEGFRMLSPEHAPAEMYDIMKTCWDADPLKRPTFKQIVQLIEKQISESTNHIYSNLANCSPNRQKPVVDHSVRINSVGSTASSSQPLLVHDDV

Consider `Cc1cc(F)c(C(=O)Nc2ccc(OC3CC3)cn2)cc1NC(=O)c1cnc(NC(=O)N2CCC2)s1` [Example 6, 2-(Azetidine-1-carbonylamino)-N-[5-[(5-cyclopropyloxypyridin-2-yl)carbamoyl]-4-fluoro-2-methylphenyl]-1,3-thiazole-5-carboxamide], for which the IC50 against c-Kit is less than 100 nM; on FLT3 it was greater than 1000 nM; on PDGFRβ, less than 100 nM; at CSF1R it was less than 100 nM; against PDGFRα it was less than 100 nM.

As for `Cc1ncc(C(=O)Nc2cc(C(=O)Nc3ccc(C(F)(F)F)cn3)c(F)cc2C)s1` [Example 14, N-[4-Fluoro-2-methyl-5-[[5-(trifluoromethyl)pyridin-2-yl]carbamoyl]phenyl]-2-methyl-1,3-thiazole-5-carboxamide], the IC50 was less than 100 nM against c-Kit (HTRF KinEASE-TK); greater than 1000 nM against FLT3 (HTRF KinEASE-TK); greater than 1000 nM against PDGFRβ (HTRF KinEASE-TK); greater than 1000 nM against CSF1R (HTRF KinEASE-TK); greater than 1000 nM at PDGFRα (HTRF KinEASE-TK).

With `Cc1ncc(C(=O)Nc2cc(C(=O)Nc3ncc(C4CC4)cn3)c(F)cc2C)s1` [Example 44, NV-[5-[(5-cyclopropylpyrimidin-2-yl)carbamoyl]-4-fluoro-2-methylphenyl]-2-methyl-1,3-thiazole-5-carboxamide], the IC50 at c-Kit (HTRF KinEASE-TK) is less than 100 nM; against FLT3 (HTRF KinEASE-TK), greater than 1000 nM; against PDGFRβ (HTRF KinEASE-TK), greater than 1000 nM; against CSF1R (HTRF KinEASE-TK), greater than 1000 nM; against PDGFRα (HTRF KinEASE-TK), greater than 1000 nM.

Consider `Cc1ncc(C(=O)Nc2cc(C(=O)Nc3ccn(C4CCC4)n3)c(F)cc2C)s1` [Example 61, N-[5-[(1-Cyclobutylpyrazol-3-yl)carbamoyl]-4-fluoro-2-methylphenyl]-2-methyl-1,3-thiazole-5-carboxamide], for which the IC50 is less than 100 nM against c-Kit (HTRF KinEASE-TK); greater than 1000 nM at FLT3 (HTRF KinEASE-TK); greater than 1000 nM against PDGFRβ (HTRF KinEASE-TK); greater than 1000 nM on CSF1R (HTRF KinEASE-TK); greater than 1000 nM against PDGFRα (HTRF KinEASE-TK).

On to `Cc1cc(F)c(C(=O)N[C@H]2CCOC2)cc1NC(=O)c1cnc(NC(=O)N2CCOCC2)s1` [Example 105, N-[5-[[4-fluoro-2-methyl-5-[[(3S)-oxolan-3-yl]carbamoyl]phenyl]carbamoyl]-1,3-thiazol-2-yl]morpholine-4-carboxamide], for which the IC50 was less than 100 nM against c-Kit (HTRF KinEASE-TK); greater than 1000 nM at FLT3 (HTRF KinEASE-TK); greater than 1000 nM on PDGFRβ (HTRF KinEASE-TK); greater than 1000 nM on CSF1R (HTRF KinEASE-TK); greater than 1000 nM at PDGFRα (HTRF KinEASE-TK).

Regarding `Cc1cc(F)c(C(=O)Nc2ccc3c(n2)COC3)cc1NC(=O)c1cnc(N)s1` [Example 120, 2-Amino-N-[5-(5,7-dihydrofuro [3,4-b]pyridin-2-ylcarbamoyl)-4-fluoro-2-methylphenyl]-1,3-thiazole-5-carboxamide], the IC50 was less than 100 nM on c-Kit (HTRF KinEASE-TK); greater than 1000 nM on FLT3 (HTRF KinEASE-TK); greater than 1000 nM against PDGFRβ (HTRF KinEASE-TK); greater than 1000 nM against CSF1R (HTRF KinEASE-TK); greater than 1000 nM at PDGFRα (HTRF KinEASE-TK).

Regarding `Cc1cc(F)c(C(=O)N[C@H]2C[C@H]2F)cc1NC(=O)c1cnc(N)s1` [Example 136, 2-Amino-N-[4-fluoro-5-[[(1S,2R)-2-fluorocyclopropyl]carbamoyl]-2-methylphenyl]-1,3-thiazole-5-carboxamide], the IC50 against c-Kit (HTRF KinEASE-TK) is 100 to 1000 nM; against FLT3 (HTRF KinEASE-TK) it was greater than 1000 nM; against PDGFRβ (HTRF KinEASE-TK) it was greater than 1000 nM; on CSF1R (HTRF KinEASE-TK), greater than 1000 nM; against PDGFRα (HTRF KinEASE-TK) it was 100 to 1000 nM.

For `Cc1cc(F)c(C(=O)N[C@@H]2C[C@@H]2F)cc1NC(=O)c1cnc(N)s1` [Example 137], the IC50 at c-Kit (HTRF KinEASE-TK) is less than 100 nM; against FLT3 (HTRF KinEASE-TK), greater than 1000 nM; on PDGFRβ (HTRF KinEASE-TK) it was greater than 1000 nM; at CSF1R (HTRF KinEASE-TK) it was greater than 1000 nM; against PDGFRα (HTRF KinEASE-TK), 100 to 1000 nM.

On to `Cc1cc(F)c(C(=O)N[C@H]2C[C@@H]2F)cc1NC(=O)c1cnc(N)s1` [Example 138, 2-Amino-N-[4-fluoro-5-[[(1S,2S)-2-fluorocyclopropyl]carbamoyl]-2-methylphenyl]-1,3-thiazole-5-carboxamide], for which the IC50 is less than 100 nM against c-Kit (HTRF KinEASE-TK); greater than 1000 nM at FLT3 (HTRF KinEASE-TK); greater than 1000 nM against PDGFRβ (HTRF KinEASE-TK); greater than 1000 nM against CSF1R (HTRF KinEASE-TK); 100 to 1000 nM at PDGFRα (HTRF KinEASE-TK).

In the case of `Cc1cnc(NC(=O)c2cc(NC(=O)c3cnc(N)s3)c(C)cc2F)s1` [Example 160, 2-Amino-N-[4-fluoro-2-methyl-5-[(5-methyl-1,3-thiazol-2-yl)carbamoyl]phenyl]-1,3-thiazole-5-carboxamide], the IC50 is less than 100 nM against c-Kit (HTRF KinEASE-TK); greater than 1000 nM against FLT3 (HTRF KinEASE-TK); 100 to 1000 nM against PDGFRβ (HTRF KinEASE-TK); 100 to 1000 nM at CSF1R (HTRF KinEASE-TK); greater than 1000 nM against PDGFRα (HTRF KinEASE-TK).

For the compound `Cc1cc(F)c(C(=O)Nc2cnn(C3CC3)c2)cc1NC(=O)c1cnc(N)s1` [Example 161, 2-Amino-N-[5-[(1-cyclopropylpyrazol-4-yl)carbamoyl]-4-fluoro-2-methylphenyl]-1,3-thiazole-5-carboxamide], the IC50 against c-Kit (HTRF KinEASE-TK) was less than 100 nM; against FLT3 (HTRF KinEASE-TK), greater than 1000 nM; against PDGFRβ (HTRF KinEASE-TK) it was 100 to 1000 nM; against CSF1R (HTRF KinEASE-TK) it was 100 to 1000 nM; against PDGFRα (HTRF KinEASE-TK), 100 to 1000 nM.

As to `Cc1ncc(C(=O)Nc2cc(C(=O)NCc3ccc(OC(F)(F)F)cc3)c(F)cc2C)s1` [Example 267, N-[4-fluoro-2-methyl-5-[[4-(trifluoromethoxy)phenyl]methylcarbamoyl]phenyl]-2-methyl-1,3-thiazole-5-carboxamide], the IC50 is 100 to 1000 nM on c-Kit (HTRF KinEASE-TK); greater than 1000 nM on PDGFRβ (HTRF KinEASE-TK); greater than 1000 nM on CSF1R (HTRF KinEASE-TK); less than 100 nM in assay [1]; greater than 1000 nM at PDGFRα (HTRF KinEASE-TK).

Turning to `Cc1ncc(C(=O)Nc2cc(C(=O)NCc3ccc(C(F)(F)F)cc3)c(F)cc2C)s1` [Example 268, N-[4-fluoro-2-methyl-5-[[4-(trifluoromethyl)phenyl]methylcarbamoyl]phenyl]-2-methyl-1,3-thiazole-5-carboxamide], the IC50 against c-Kit (HTRF KinEASE-TK) was less than 100 nM; at PDGFRβ (HTRF KinEASE-TK), greater than 1000 nM; against CSF1R (HTRF KinEASE-TK) it was greater than 1000 nM; in assay [1], less than 100 nM; against PDGFRα (HTRF KinEASE-TK) it was greater than 1000 nM.

Turning to `Cc1ncc(C(=O)Nc2cc(C(=O)NCc3ccc(OC(F)(F)F)c(F)c3)c(F)cc2C)s1` [Example 269, N-[4-fluoro-5-[[3-fluoro-4-(trifluoromethoxy)phenyl]methylcarbamoyl]-2-methylphenyl]-2-methyl-1,3-thiazole-5-carboxamide], the IC50 against c-Kit (HTRF KinEASE-TK) is 100 to 1000 nM; on PDGFRβ (HTRF KinEASE-TK) it was greater than 1000 nM; against CSF1R (HTRF KinEASE-TK) it was greater than 1000 nM; in assay [1] it was less than 100 nM; on PDGFRα (HTRF KinEASE-TK), greater than 1000 nM.

With `Cc1ncc(C(=O)Nc2cc(C(=O)NCc3ccc(OC(F)(F)F)cc3F)c(F)cc2C)s1` [Example 270], the IC50 on c-Kit (HTRF KinEASE-TK) was 100 to 1000 nM; at PDGFRβ (HTRF KinEASE-TK), greater than 1000 nM; at CSF1R (HTRF KinEASE-TK), greater than 1000 nM; in assay [1] it was 100 to 1000 nM; on PDGFRα (HTRF KinEASE-TK), greater than 1000 nM.

As usually defined, the IC50 is the concentration at which inhibition is half-maximal.

For the origin of these results see US20250145606A1 (Arcus Biosciences, Inc., priority 2023, published 2025).
